According to article PMC13280021, “Collateral hypersensitivity between ZY19489 and piperaquine neutralizes PfCRT-mediated drug efflux and Plasmodium falciparum resistance” (Nature Communications, 2025):
Where two headings read alike, the source gives them in different places.

Key:
[1] = target: T1, P. falciparum chloroquine resistance transporter (PfCRT), 7G8 + F145I isoform (Plasmodium falciparum, UniProt W7FI62, F145I); experiment: […] [3H]PPQ uptake in PfCRT proteoliposomes; type: biochemical
T1 construct: gene CRT; purified PfCRT 7G8 + F145I reconstituted in proteoliposomes
T1 sequence (W7FI62 whole entry F145I, canonical isoform): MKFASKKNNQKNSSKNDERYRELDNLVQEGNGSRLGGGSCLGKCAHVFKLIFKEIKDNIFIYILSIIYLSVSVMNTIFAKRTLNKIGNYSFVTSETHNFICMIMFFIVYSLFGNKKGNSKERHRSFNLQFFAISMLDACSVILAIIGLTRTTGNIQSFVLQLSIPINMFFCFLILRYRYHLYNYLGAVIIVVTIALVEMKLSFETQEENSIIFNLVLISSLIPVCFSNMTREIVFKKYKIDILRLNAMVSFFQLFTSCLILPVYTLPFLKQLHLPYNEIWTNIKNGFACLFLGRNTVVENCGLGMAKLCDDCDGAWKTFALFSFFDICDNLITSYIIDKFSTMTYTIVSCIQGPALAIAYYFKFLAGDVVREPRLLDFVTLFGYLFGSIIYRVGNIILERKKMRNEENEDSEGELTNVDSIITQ

[2] = system: T2, Plasmodium falciparum Dd2^Dd2crt; experiment: microbe, parasite or virus in culture; parameters: species or system P. falciparum in human red blood cells; asexual blood stage growth inhibition, flow cytometry with SYBR Green I and MitoTracker Deep Red; details: DD2, Erythrocyte, 72 h
T2 construct: Dd2
Method: Susceptibility to all drugs tested in this study was measured by incubating asynchronous, ABS parasites plated at 0.2% to 0.3% parasitemia (or 0.8% for the poorly growing ZY19489-resistant lines harboring the pfcrt N246H allele) and 1% hematocrit at 37 °C in 96-well plates. The assays were set up across a range of drug concentrations with two-fold dilutions. For the experiments testing for susceptibility of recrudescent parasite lines that emerged in humanized NSG mice to ZY19489, M5717, MMV693183, or ferroquine, parasites were cultured at 2% hematocrit in human O^+ or A^+ RBCs in RPMI-1640 media, supplemented with 25 mM HEPES (Fisher), 50 mg/L hypoxanthine (Sigma Aldrich), 2 mM L-glutamine (Cambridge Isotope Laboratories, Inc.), 0.21% sodium bicarbonate (Sigma Aldrich), 0.5% (w/v) Albumax (Invitrogen), 8% filtered, heat-inactivated, pooled off-the-clot AB^+ human serum (Interstate Blood Bank or New York Blood Center), and 10 μg/mL gentamicin (Fisher). The parental P. falciparum Pf3D7^0087/N9 strain that has been adapted to proliferate in this humanized NSG mouse model was cultured in parallel as the drug-sensitive control strain. All compound susceptibility assays for the recrudescent lines and parental control strain were performed using 8% serum-containing medium. Parasite growth in each well was assessed after 72 h using flow cytometry of cultures stained with SYBR Green I and MitoTracker Deep Red (Supplementary Fig. S12). IC50 and IC90 values were derived from growth inhibition data using nonlinear regression analysis (GraphPad Prism 7) or linear interpolation (assays for recrudescent lines from humanized mice). Unless otherwise stated, assays were performed on four independent occasions with technical duplicates, and statistical comparisons were made using two-tailed Mann–Whitney U tests. Gated RBCs 97.0% Live parasites 3.80% A B Forward scatter (FSC-H) MitoTracker Deep Red Supplementary Fig. 12: Gating strategy for flow cytometry-based quantification of P. falciparum asexual blood stage parasite proliferation in drug susceptibility and growth rate assays. Intra-erythrocytic parasites were seeded at 0.3% - 0.8% parasitemia and 1% hematocrit for 72 hours in the presence of a range of drug concentrations that had been 2-fold serially diluted in duplicates along with drug-free controls. Cells were then labeled with 1× SYBR Green (Invitrogen) and 100 nM MitoTracker Deep Red FM (Invitrogen) as nuclear stain and vital dyes, respectively. Parasite survival was assessed by flow cytometry on an Intellicyt iQue3 (Essen Bioscience). Between 9,000 and 15,000 events were counted per sample. […] (A) Forward (FSC-H) and side scatter (SSC-H) gating of the total red blood cell (RBC) population, representing 97.0% of the total events counted. (B) Gating strategy used to quantify viable intracellular parasites, which are positively stained by both MitoTracker Deep Red and SYBR Green I and appear as events in the upper right gate (live parasites, 3.80% parasitemia). Uninfected erythrocytes appear in the lower left gate as MitoTracker Deep Red and SYBR Green I negative populations.

[3] = target: T3, P. falciparum chloroquine resistance transporter (PfCRT), 7G8 isoform (Plasmodium falciparum, UniProt W7FI62); experiment: […] [3H]CQ uptake in PfCRT proteoliposomes; type: biochemical
T3 construct: gene CRT; purified PfCRT 7G8 reconstituted in proteoliposomes
T3 sequence (W7FI62 whole entry, canonical isoform): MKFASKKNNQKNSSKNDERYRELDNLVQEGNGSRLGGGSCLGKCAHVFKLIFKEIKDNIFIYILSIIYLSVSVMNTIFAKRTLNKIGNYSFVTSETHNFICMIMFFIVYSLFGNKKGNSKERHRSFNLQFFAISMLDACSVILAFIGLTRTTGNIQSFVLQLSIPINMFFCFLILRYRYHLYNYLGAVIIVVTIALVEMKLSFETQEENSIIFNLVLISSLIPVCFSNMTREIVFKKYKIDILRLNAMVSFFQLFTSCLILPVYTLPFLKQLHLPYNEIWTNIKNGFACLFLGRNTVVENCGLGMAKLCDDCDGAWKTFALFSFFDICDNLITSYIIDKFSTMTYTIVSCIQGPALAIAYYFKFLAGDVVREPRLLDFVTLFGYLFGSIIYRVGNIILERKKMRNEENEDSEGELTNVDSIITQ

[4] = target: T1, P. falciparum chloroquine resistance transporter (PfCRT), 7G8 + F145I isoform; experiment: inhibition of [3H]PPQ uptake in PfCRT proteoliposomes; type: biochemical; details: read-out: % inhibition of [3H]PPQ transport at 1 μM
[5] = system: T4, Plasmodium falciparum TAD_022; experiment: microbe, parasite or virus in culture; parameters: species or system P. falciparum 3D7^0087/N9 in human red blood cells; asexual blood stage growth inhibition in 8% human serum medium, flow cytometry; details: Erythrocyte, 72 h; for IC50: read-out: IC50 ± SEM (nM); for IC90: read-out: IC90 ± SEM (nM)
T4 construct: 3D7^0087/N9 (TAD_022)
Method: Susceptibility to all drugs tested in this study was measured by incubating asynchronous, ABS parasites plated at 0.2% to 0.3% parasitemia (or 0.8% for the poorly growing ZY19489-resistant lines harboring the pfcrt N246H allele) and 1% hematocrit at 37 °C in 96-well plates. The assays were set up across a range of drug concentrations with two-fold dilutions. For the experiments testing for susceptibility of recrudescent parasite lines that emerged in humanized NSG mice to ZY19489, M5717, MMV693183, or ferroquine, parasites were cultured at 2% hematocrit in human O^+ or A^+ RBCs in RPMI-1640 media, supplemented with 25 mM HEPES (Fisher), 50 mg/L hypoxanthine (Sigma Aldrich), 2 mM L-glutamine (Cambridge Isotope Laboratories, Inc.), 0.21% sodium bicarbonate (Sigma Aldrich), 0.5% (w/v) Albumax (Invitrogen), 8% filtered, heat-inactivated, pooled off-the-clot AB^+ human serum (Interstate Blood Bank or New York Blood Center), and 10 μg/mL gentamicin (Fisher). The parental P. falciparum Pf3D7^0087/N9 strain that has been adapted to proliferate in this humanized NSG mouse model was cultured in parallel as the drug-sensitive control strain. All compound susceptibility assays for the recrudescent lines and parental control strain were performed using 8% serum-containing medium. Parasite growth in each well was assessed after 72 h using flow cytometry of cultures stained with SYBR Green I and MitoTracker Deep Red (Supplementary Fig. S12). IC50 and IC90 values were derived from growth inhibition data using nonlinear regression analysis (GraphPad Prism 7) or linear interpolation (assays for recrudescent lines from humanized mice). Unless otherwise stated, assays were performed on four independent occasions with technical duplicates, and statistical comparisons were made using two-tailed Mann–Whitney U tests. To assess potential cross-resistance between M5717 and ZY19489, we tested three M5717-resistant lines (TAD_470, TAD_462, and TAD_464), which harbored distinct PfeEF2 mutations (I183M, P754S, and I182T, respectively), for susceptibility to ZY19489.

## Clc1ccc2c(N3CCN(CCCN4CCN(c5ccnc6cc(Cl)ccc56)CC4)CC3)ccnc2c1 [PPQ, piperaquine]
[1]
  100 nM [3H]PPQ uptake in PfCRT proteoliposomes: interference was also observed against [^3H]PPQ transport by the PPQ-resistant isoform 7G8 + F145I
[2]; read-out: PPQ IC50
  IC50: 12 ± 1 nM
[2]; read-out: PPQ IC90
  IC90: 22.3 ± 4.6 nM

## CCNCc1cc(Nc2ccnc3cc(Cl)ccc23)ccc1O [DEAQ, mono-desethylamodiaquine]
[2]; read-out: DEAQ IC50
  IC50: 43.8 ± 5.9 nM
[2]; read-out: DEAQ IC90
  IC90: 78.7 ± 8.8 nM

## CCCCN(CCCC)CC(O)c1cc(Cl)cc2c1-c1ccc(Cl)cc1/C2=C/c1ccc(Cl)cc1 (stereo not drawn) [LMF, lumefantrine]
[2]; read-out: LMF IC50
  IC50: 6 ± 1.2 nM
[2]; read-out: LMF IC90
  IC90: 11.2 ± 1.8 nM

## CCN(CC)CCCC(C)Nc1ccnc2cc(Cl)ccc12 (stereo not drawn) [CQ, chloroquine]
[3]
  100 nM [3H]CQ uptake in PfCRT proteoliposomes: [^3H]CQ transport by the CQ-resistant 7G8 isoform
[2]; read-out: CQ IC50
  IC50: 104 ± 5.7 nM
[2]; read-out: CQ IC90
  IC90: 217 ± 11.3 nM
[2]; read-out: IC50 (nM)
  IC50: 94.6 ± 6.6 nM
[2]; read-out: IC90 (nM)
  IC90: 177 ± 24.1 nM

## C[C@H]1[C@@H](O)O[C@@H]2O[C@@]3(C)CC[C@H]4[C@H](C)CC[C@@H]1[C@@]24OO3 [DHA, dihydroartemisinin]
[2]; read-out: DHA IC50
  IC50: 2.6 ± 0.2 nM
[2]; read-out: DHA IC90
  IC90: 4.7 ± 0.6 nM

## Cc1nc(Nc2ncc(N3CCN(C)[C@H](C)C3)c(Nc3cc(C)n(C)n3)n2)cc(C2CC2)c1F [ZY19489]
[4]
  inhibition at 1 µM: 79%
[5]
  IC50: 7.2 ± 0.9 nM
  IC90: 17.1 ± 1.1 nM

## O=C(NCCN1CCCC1)c1cc(-c2ccc(CN3CCOCC3)cc2)nc2ccc(F)cc12 [M5717]
[5]
  IC50: 0.4 ± 0.01 nM
  IC90: 0.8 ± 0.1 nM

## O=C1C(O)=C([C@H]2CC[C@H](c3ccc(Cl)cc3)CC2)C(=O)c2ccccc21 [ATQ, atovaquone]
[2]; read-out: ATQ IC50
  IC50: 2.5 ± 0.4 nM
[2]; read-out: ATQ IC90
  IC90: 5.3 ± 0.7 nM

## O=C1CCC(N2C(=O)c3ccccc3C2=O)C(=O)N1 (stereo not drawn) [Thalidomide]
[2]; read-out: IC50 (nM)
  IC50: 85200 ± 5060 nM
[2]; read-out: IC90 (nM)
  IC90: 115700 ± 1110 nM

## COC(=O)[C@H](CCCN=C(NC(=O)OCOC(=O)Cc1ccccc1)NC(=O)OCOC(=O)Cc1ccccc1)NS(=O)(=O)c1ccc(C)cc1 [pro-TAME]
[2]; read-out: IC50
  IC50: 58400 ± 7100 nM
[2]; read-out: IC90
  IC90: 91000 ± 11300 nM

## COc1ccc(C2=N[C@@H](c3ccc(Cl)cc3)[C@@H](c3ccc(Cl)cc3)N2C(=O)N2CCNC(=O)C2)c(OC(C)C)c1 [Nutlin-3]
[2]; read-out: IC50 (nM)
  IC50: 5660 ± 511 nM
[2]; read-out: IC90 (nM)
  IC90: 9130 ± 714 nM
